Where no end group is shown, it is not given here.
Columns and labels:
C57 mice = test: Forced swim test (FST) of mice, behavioral despair model of depressive disorder; format: in vivo, mouse; conditions: for immobility time of forced swimming mice: vs vehicle, FIG. 1
Excerpt: Among the behavioral despair models, forced swim test of mice/rats is the most common animal model of depressive disorder to evaluate the effect of antidepressants. In this model, animals are forced to swim in water in a limited space. After struggling for many times but failing to escape, the animals may stop swimming and begin floating without struggling to escape anymore. This immobility is considered as the manifestation of behavioral despair and depression. This model has good predictive validity for antidepressants.
By using ketamine metabolite HNK as a positive control medication, the effect of compound PMS-001 on depression-like behavior of C57 mice was investigated through forced swim test 1 hour and 24 hours after single medicinal intervention. […]; (SEQ ID NO: 3). Wherein the amino acid sequence YGRKKRRQRRR (SEQ ID NO: 2), also known as Tat peptide, is a carrier peptide, and can assist the polypeptide in penetration of the blood-brain barrier. […] However, it is unknown in the art whether a C-terminal polypeptide of GluR2 such as YKEGYNVYG (SEQ ID NO: 1) can be used in the treatment of depressive disorder, specifically major depressive disorder.
The experimental animals were 6-week-old male C57 mice obtained from Shanghai SLAC Laboratory Animal Co., Ltd, with body weight of […]. They were transported to the Animal Breeding Center of Shanghai Institute of Materia Medica, Chinese Academy of Sciences (Animal production license: SCXK9 [Shanghai] 2004-0002, use license: SYXK [Shanghai] 2003-0029), and allowed to acclimatize in animal facilities for more than 3 days, with 6 individuals per cage. Mice were housed at room temperature (23±0.2° C.), with a 12 h/12 h light/dark cycle. Before the behavioral test, animals were moved to the behavior testing room 2 hours in advance for acclimation to relieve tension. […]
24 hours before administration, each mouse was placed into a cylinder tank for acclimation in the water environment for 10 min. […] Mice were videotaped for 6 minutes since being placed into water, and the immobility time for the last 4 minutes was calculated due to the fact that most animals were very active in the first two minutes (the criteria for immobility: mice stop struggling, keep immobility and make small movements to balance their bodies or float in water). […]
All data analyses were performed with spss 22 data processing software. […] Data were expressed as Mean±SEM. *: p<0.05; **: p<0.01; ***: p<0.001.

AMPAR = conditions: from EP1,687,427B1; cited from earlier work

Row | Sequence | immobility time of forced swimming mice (C57 mice; 1 hour after administration, single 10 mg/kg intraperitoneal injection) | immobility time of forced swimming mice (C57 mice; 24 hours after administration, single 10 mg/kg intraperitoneal injection) | antidepressant effect compared to positive control HNK (C57 mice; same dose (10 mg/kg i.p.)) | onset of antidepressant effect after administration (C57 mice; single 10 mg/kg intraperitoneal injection) | inhibition of NMDA-mediated excessive endocytosis of AMPAR (AMPAR)
1 | YGRKKRRQRRRYKEGYNVYG [PMS-001] | very significantly decrease | very significantly decrease | better rapid and lasting antidepressant effect | 1 h | 
2 | YKEGYNVYG (Artificially synthesized GluR2-3Y peptide) |  |  |  |  | proved to inhibit

— patent US20220347266A1, “METHOD AND MEDICINE FOR TREATING DEPRESSIVE DISORDERS” (QINGDAO PRIMEDICINE PHARMACEUTICAL CO., LTD., priority 2018, published 2022)
